Experimental findings from BindingDB's records for patent US20230271968 (Beijing Tide Pharmaceutical, 2023) are described below.

This assay addresses Serine/threonine-protein kinase ATR (Homo sapiens, UniProt Q13535). In words: Assay of ATR Kinase Activity. As to the method:
The amount of phosphorylated protein was determined by time-resolved fluorescence in this assay. The amount of phosphorylated protein was detected by anti-p53-phospho-(serine 15)-K-specific antibody (Cisbio, art. No.: 61GSTDLA) and d2 labeled anti-GST antibody (Cisbio, art. No. 61P08KAE). […] The reagents used above were purchased from Sigma or Invitrogen, except for those whose manufacturers were mentioned.

Chain of Serine/threonine-protein kinase ATR (Q13535 whole entry): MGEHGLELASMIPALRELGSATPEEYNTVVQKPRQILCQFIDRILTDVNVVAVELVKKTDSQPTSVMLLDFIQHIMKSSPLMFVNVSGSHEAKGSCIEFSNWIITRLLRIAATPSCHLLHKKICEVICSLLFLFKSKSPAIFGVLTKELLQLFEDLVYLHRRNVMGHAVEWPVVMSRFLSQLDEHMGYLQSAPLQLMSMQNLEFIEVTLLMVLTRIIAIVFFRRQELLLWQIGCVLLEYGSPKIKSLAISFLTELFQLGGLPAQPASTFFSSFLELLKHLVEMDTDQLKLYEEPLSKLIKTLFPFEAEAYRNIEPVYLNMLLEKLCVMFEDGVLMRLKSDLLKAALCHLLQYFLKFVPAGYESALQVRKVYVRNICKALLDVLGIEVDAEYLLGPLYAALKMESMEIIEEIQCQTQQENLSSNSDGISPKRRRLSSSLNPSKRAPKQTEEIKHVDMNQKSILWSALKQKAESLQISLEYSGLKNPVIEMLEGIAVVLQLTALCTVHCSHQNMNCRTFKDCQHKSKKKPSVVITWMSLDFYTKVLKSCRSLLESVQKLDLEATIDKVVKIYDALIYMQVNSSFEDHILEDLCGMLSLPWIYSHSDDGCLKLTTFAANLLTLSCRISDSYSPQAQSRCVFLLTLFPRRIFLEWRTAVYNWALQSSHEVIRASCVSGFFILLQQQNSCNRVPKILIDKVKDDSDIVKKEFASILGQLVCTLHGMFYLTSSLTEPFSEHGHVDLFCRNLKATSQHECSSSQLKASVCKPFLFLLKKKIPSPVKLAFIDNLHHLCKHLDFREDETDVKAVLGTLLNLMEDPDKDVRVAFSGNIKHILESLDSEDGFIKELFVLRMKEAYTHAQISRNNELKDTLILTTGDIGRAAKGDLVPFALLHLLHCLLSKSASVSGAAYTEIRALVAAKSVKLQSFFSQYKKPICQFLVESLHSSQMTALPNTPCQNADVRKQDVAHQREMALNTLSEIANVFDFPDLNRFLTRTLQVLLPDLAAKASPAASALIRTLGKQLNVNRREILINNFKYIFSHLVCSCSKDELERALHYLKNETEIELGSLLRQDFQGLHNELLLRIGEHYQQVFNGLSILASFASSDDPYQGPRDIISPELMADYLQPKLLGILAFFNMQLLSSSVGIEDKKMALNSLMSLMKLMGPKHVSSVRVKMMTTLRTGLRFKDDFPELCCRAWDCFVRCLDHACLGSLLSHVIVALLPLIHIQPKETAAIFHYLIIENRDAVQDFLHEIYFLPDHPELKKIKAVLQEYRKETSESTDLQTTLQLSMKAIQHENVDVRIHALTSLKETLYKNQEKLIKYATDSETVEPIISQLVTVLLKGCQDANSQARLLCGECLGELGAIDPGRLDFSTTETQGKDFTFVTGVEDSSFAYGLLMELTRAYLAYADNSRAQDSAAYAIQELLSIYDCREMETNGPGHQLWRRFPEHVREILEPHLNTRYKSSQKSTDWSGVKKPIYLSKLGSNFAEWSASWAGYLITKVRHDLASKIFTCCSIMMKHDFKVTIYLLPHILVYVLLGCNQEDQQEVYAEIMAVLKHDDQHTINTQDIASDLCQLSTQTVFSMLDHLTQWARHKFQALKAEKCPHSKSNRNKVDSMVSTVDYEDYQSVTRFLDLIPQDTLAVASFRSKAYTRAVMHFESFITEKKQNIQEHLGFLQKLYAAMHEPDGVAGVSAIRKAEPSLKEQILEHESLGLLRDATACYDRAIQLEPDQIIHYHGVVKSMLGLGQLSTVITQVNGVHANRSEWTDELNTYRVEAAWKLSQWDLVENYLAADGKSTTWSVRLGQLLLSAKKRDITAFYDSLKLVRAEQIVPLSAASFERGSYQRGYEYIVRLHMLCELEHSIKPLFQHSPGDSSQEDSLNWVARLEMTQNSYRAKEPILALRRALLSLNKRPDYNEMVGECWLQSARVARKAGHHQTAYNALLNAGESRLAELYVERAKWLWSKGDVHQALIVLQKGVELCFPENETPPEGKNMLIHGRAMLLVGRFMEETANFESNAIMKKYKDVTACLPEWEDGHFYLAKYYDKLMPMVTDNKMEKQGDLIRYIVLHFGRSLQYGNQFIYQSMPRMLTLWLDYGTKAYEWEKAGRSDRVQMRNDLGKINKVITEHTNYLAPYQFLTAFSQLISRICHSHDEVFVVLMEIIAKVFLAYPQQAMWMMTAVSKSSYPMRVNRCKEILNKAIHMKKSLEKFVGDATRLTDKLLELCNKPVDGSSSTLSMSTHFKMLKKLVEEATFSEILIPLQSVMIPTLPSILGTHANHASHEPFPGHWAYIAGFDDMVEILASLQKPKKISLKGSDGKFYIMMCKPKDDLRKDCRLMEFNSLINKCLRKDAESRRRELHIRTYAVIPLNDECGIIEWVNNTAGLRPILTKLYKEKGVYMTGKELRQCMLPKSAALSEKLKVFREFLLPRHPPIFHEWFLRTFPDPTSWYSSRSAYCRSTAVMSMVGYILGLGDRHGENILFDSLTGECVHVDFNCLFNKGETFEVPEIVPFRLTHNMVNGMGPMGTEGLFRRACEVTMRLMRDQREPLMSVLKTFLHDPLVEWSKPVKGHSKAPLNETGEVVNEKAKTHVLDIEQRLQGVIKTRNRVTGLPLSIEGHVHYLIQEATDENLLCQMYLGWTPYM

One may read the IC50 as the concentration at which inhibition is half-maximal. A high value points to a need for much substance. `Cc1nn(-c2cncc(C#N)c2)c(C)c1-c1cc(N2CCOC[C@H]2C)nc2c(-c3ccn[nH]3)cnn12` [US20230271968, Compound A11] showed an IC50 of 9 nM.
